SMILES strings stand for the structures. Where “and” joins values, the source holds several entries; their conditions need not be identical. Identical values can stand only once. Records with an inconclusive call do not appear.

The assay concerns BDF1 mice, s.c. Lewis lung carcinoma, T/C %. Kind of assay: NCI In Vivo Anticancer Drug Screen. Data for tumor model Lewis Lung Carcinoma (subcutaneous) in B6D2F1 (BDF1) mice. How it is done: The antitumor activity of compounds was measured in mice bearing transplantable tumors. Survival or tumor size were measured and the results are expressed as the measurement made in the treated group (T) divided by the measurement made in the vehicle treated control group (C). The tumor model used in this assay is Lewis Lung Carcinoma (subcutaneous) in B6D2F1 (BDF1) mice

[1] abbreviates: endpoint: median survival time, dose: 6.25 mg/kg/injection, schedule: Q01DX009 (ip), vehicle: Klucel (hydroxypropylcellulose) (HPC), higher = longer survival.
[2] abbreviates: endpoint: median survival time, dose: 1.0 mg/kg/injection, schedule: Q01DX009 (ip), vehicle: Klucel (hydroxypropylcellulose) (HPC), higher = longer survival.
Setting [3] is: endpoint: median survival time, dose: 8.0 mg/kg/injection, schedule: Q01DX009 (ip), vehicle: Klucel (hydroxypropylcellulose) (HPC), higher = longer survival.
[4] abbreviates: endpoint: median survival time, dose: 0.5 mg/kg/injection, schedule: Q01DX009 (ip), vehicle: Klucel (hydroxypropylcellulose) (HPC), higher = longer survival.
[5] abbreviates: endpoint: median survival time, dose: 2.0 mg/kg/injection, schedule: Q01DX009 (ip), vehicle: Klucel (hydroxypropylcellulose) (HPC), higher = longer survival.
[6] abbreviates: endpoint: median survival time, dose: 4.0 mg/kg/injection, schedule: Q01DX009 (ip), vehicle: Klucel (hydroxypropylcellulose) (HPC), higher = longer survival.

With `OC(CCl)CN1CC[N+]2(CC1)CC[N+]1(CCN(CC(O)CCl)CC1)CC2` (stereo not given), the T/C is, setting by setting: (endpoint: median survival time, dose: 40.0 mg/kg/injection, schedule: Q01DX009 (ip), vehicle: saline, higher = longer survival) 107 % of control and 112 % of control; (endpoint: median survival time, dose: 80.0 mg/kg/injection, schedule: Q01DX009 (ip), vehicle: saline, higher = longer survival) 114 % of control and 121 % of control; (endpoint: median survival time, dose: 160.0 mg/kg/injection, schedule: Q01DX009 (ip), vehicle: saline, higher = longer survival) 120 % of control; (endpoint: median survival time, dose: 320.0 mg/kg/injection, schedule: Q01DX009 (ip), vehicle: saline, higher = longer survival) 150 % of control and 157 % of control.

As to `CCOC(=O)NC`, the T/C was 87 % of control (endpoint: mean tumor weight, dose: 177.0 mg/kg/injection, schedule: Q01DX011 (ip), vehicle: saline, higher = larger tumour); 83 % of control (endpoint: mean tumor weight, dose: 266.0 mg/kg/injection, schedule: Q01DX011 (ip), vehicle: saline, higher = larger tumour); 62 % of control (endpoint: mean tumor weight, dose: 400.0 mg/kg/injection, schedule: Q01DX011 (ip), vehicle: saline, higher = larger tumour); 44 % of control (endpoint: mean tumor weight, dose: 600.0 mg/kg/injection, schedule: Q01DX011 (ip), vehicle: saline, higher = larger tumour).

Turning to `O=c1cnn(C2OC(CO)C(O)C2O)c(=O)[nH]1` (stereo not given), the T/C by setting is: (endpoint: median survival time, dose: 150.0 mg/kg/injection, schedule: Q01DX009 (ip), vehicle: Klucel (hydroxypropylcellulose) (HPC), higher = longer survival) 150 % of control; (endpoint: median survival time, dose: 600.0 mg/kg/injection, schedule: Q01DX009 (ip), vehicle: Klucel (hydroxypropylcellulose) (HPC), higher = longer survival) 157 % of control.

`Nc1nncs1`: under setting [1], the T/C is 117 % of control and 122 % of control.

For `FC(F)(F)c1nc2nc(Cl)c(Cl)nc2[nH]1`, the T/C was 105 % of control (endpoint: median survival time, dose: 11.25 mg/kg/injection, schedule: Q01DX009 (ip), vehicle: Klucel (hydroxypropylcellulose) (HPC), higher = longer survival); 101 % of control (endpoint: median survival time, dose: 22.5 mg/kg/injection, schedule: Q01DX009 (ip), vehicle: Klucel (hydroxypropylcellulose) (HPC), higher = longer survival); 96 % of control (endpoint: median survival time, dose: 45.0 mg/kg/injection, schedule: Q01DX009 (ip), vehicle: Klucel (hydroxypropylcellulose) (HPC), higher = longer survival); 98 % of control (endpoint: median survival time, dose: 90.0 mg/kg/injection, schedule: Q01DX009 (ip), vehicle: Klucel (hydroxypropylcellulose) (HPC), higher = longer survival).

Turning to `COc1ccccc1NC(=O)CSC(N)=O`, the T/C (endpoint: mean tumor weight, dose: 125.0 mg/kg/injection, schedule: Q01DX011 (ip), vehicle: carboxymethylcellulose (CMC), higher = larger tumour) is 97 % of control and the T/C (endpoint: mean tumor weight, dose: 250.0 mg/kg/injection, schedule: Q01DX011 (ip), vehicle: carboxymethylcellulose (CMC), higher = larger tumour) is 47 % of control.

On to `CNC1C(OC2C(OC3C(O)C(O)C(N=C(N)N)C(O)C3N=C(N)N)OC(C)C2(O)C=O)OC(CO)C(O)C1O` (stereo not given), for which the T/C is 95 % of control (endpoint: median survival time, dose: 50.0 mg/kg/injection, schedule: Q01DX009 (ip), vehicle: water, higher = longer survival); 102 % of control (endpoint: median survival time, dose: 100.0 mg/kg/injection, schedule: Q01DX009 (ip), vehicle: water, higher = longer survival); 105 % of control (endpoint: median survival time, dose: 200.0 mg/kg/injection, schedule: Q01DX009 (ip), vehicle: water, higher = longer survival).

On to `O=C(O)O.[Cd]`, for which, under “endpoint: mean tumor weight, dose: 0.5 mg/kg/injection, schedule: Q01DX011 (ip), vehicle: carboxymethylcellulose (CMC), higher = larger tumour”, the T/C was 72 % of control.

For `C[n+]1ccc(Nc2ccc(NC(=O)c3ccc(Nc4cc[n+](C)c5ccc(N)cc45)cc3)cc2)cc1`, the T/C was 167 % of control under setting [2] and 244 % of control under setting [3].

`CCCCn1cnc2c(=S)nc[nH]c21`: the T/C (endpoint: mean tumor weight, dose: 15.0 mg/kg/injection, schedule: Q01DX011 (ip), vehicle: water, higher = larger tumour) was 49 % of control; the T/C (endpoint: mean tumor weight, dose: 30.0 mg/kg/injection, schedule: Q01DX011 (ip), vehicle: water, higher = larger tumour) is 60 % of control; the T/C (endpoint: mean tumor weight, dose: 60.0 mg/kg/injection, schedule: Q01DX011 (ip), vehicle: water, higher = larger tumour) is 53 % of control.

`Cc1c(N)nc(C(CC(N)=O)NCC(N)C(N)=O)nc1C(=O)NC(C(=O)NC(C)C(O)C(C)C(=O)NC(C(=O)NCCc1nc(-c2nc(C(=O)NCCC[S+](C)C)cs2)cs1)C(C)O)C(OC1OC(CO)C(O)C(O)C1OC1OC(CO)C(O)C(OC(N)=O)C1O)c1cnc[nH]1` (stereo not given): the T/C under setting [4] was 116 % of control, the T/C under setting [2] is 121 % of control, the T/C under setting [5] was 121 % of control and the T/C under setting [6] was 121 % of control.

In the case of `COC12C(COC(N)=O)C3=C(C(=O)C(C)=C(N)C3=O)N1CC1C2N1C` (stereo not given), the T/C was 98 % of control (endpoint: median survival time, dose: 2.0 mg/kg/injection, schedule: Q01DX011 (ip), vehicle: other, higher = longer survival) and 96 % of control (endpoint: median survival time, dose: 4.0 mg/kg/injection, schedule: Q01DX011 (ip), vehicle: other, higher = longer survival).

For `CC[C@H]1CN2CCc3cc(OC)c(OC)cc3[C@@H]2C[C@@H]1C[C@H]1NCCc2cc(O)c(OC)cc21`, the T/C by setting is: (endpoint: mean tumor weight, dose: 1.25 mg/kg/injection, schedule: Q01DX011 (ip), vehicle: saline, higher = larger tumour) 94 % of control; (endpoint: mean tumor weight, dose: 2.5 mg/kg/injection, schedule: Q01DX011 (ip), vehicle: saline, higher = larger tumour) 55 % of control; (endpoint: mean tumor weight, dose: 5.0 mg/kg/injection, schedule: Q01DX011 (ip), vehicle: saline, higher = larger tumour) 37 % of control.

For `CC[CH2][Pb]([CH2]CC)([CH2]CC)[O]C(=O)C(Cl)(Cl)Cl`, the T/C is 101 % of control (endpoint: median survival time, dose: 0.19 mg/kg/injection, schedule: Q01DX009 (ip), vehicle: saline with Tween-80, higher = longer survival); 94 % of control (endpoint: median survival time, dose: 0.38 mg/kg/injection, schedule: Q01DX009 (ip), vehicle: saline with Tween-80, higher = longer survival); 90 % of control (endpoint: median survival time, dose: 0.75 mg/kg/injection, schedule: Q01DX009 (ip), vehicle: saline with Tween-80, higher = longer survival); 103 % of control (endpoint: median survival time, dose: 1.5 mg/kg/injection, schedule: Q01DX009 (ip), vehicle: saline with Tween-80, higher = longer survival); 106 % of control (endpoint: median survival time, dose: 3.0 mg/kg/injection, schedule: Q01DX009 (ip), vehicle: saline with Tween-80, higher = longer survival); 106 % of control (endpoint: median survival time, dose: 6.0 mg/kg/injection, schedule: Q01DX009 (ip), vehicle: saline with Tween-80, higher = longer survival).

Regarding `O=NN(CCCl)C(=O)Nc1ccc2[nH]c3ccccc3c2c1`, the T/C runs as follows: under setting [6], 119 % of control; (endpoint: median survival time, dose: 8.12 mg/kg/injection, schedule: Q01DX009 (ip), vehicle: Klucel (hydroxypropylcellulose) (HPC), higher = longer survival) 110 % of control; (endpoint: median survival time, dose: 32.5 mg/kg/injection, schedule: Q01DX009 (ip), vehicle: Klucel (hydroxypropylcellulose) (HPC), higher = longer survival) 97 % of control.

Regarding `COc1ccc2c(c1)CC[C@@H]1[C@@H]2CC[C@]2(C)/C(=N\O)CC[C@@H]12`, the T/C was 43 % of control (endpoint: mean tumor weight, dose: 50.0 mg/kg/injection, schedule: Q01DX011 (sc), vehicle: steriod suspending solution, higher = larger tumour); 53 % of control (endpoint: mean tumor weight, dose: 115.0 mg/kg/injection, schedule: Q01DX011 (sc), vehicle: steriod suspending solution, higher = larger tumour); 45 % of control (endpoint: mean tumor weight, dose: 170.0 mg/kg/injection, schedule: Q01DX011 (sc), vehicle: steriod suspending solution, higher = larger tumour); 53 % of control (endpoint: mean tumor weight, dose: 200.0 mg/kg/injection, schedule: Q01DX011 (sc), vehicle: steriod suspending solution, higher = larger tumour); 36 % of control (endpoint: mean tumor weight, dose: 250.0 mg/kg/injection, schedule: Q01DX011 (sc), vehicle: steriod suspending solution, higher = larger tumour); 43 % of control (endpoint: mean tumor weight, dose: 375.0 mg/kg/injection, schedule: Q01DX011 (sc), vehicle: steriod suspending solution, higher = larger tumour). Further, the T/C (endpoint: mean tumor weight, dose: 400.0 mg/kg/injection, schedule: Q01DX011 (sc), vehicle: steriod suspending solution, higher = larger tumour) was 50 % of control and the T/C (endpoint: mean tumor weight, dose: 600.0 mg/kg/injection, schedule: Q01DX011 (sc), vehicle: steriod suspending solution, higher = larger tumour) is 24 % of control.

For `O=C1CC(c2ccc(OCN(CCCl)CCCl)cc2)CC(=O)C1CN(CCCl)CCCl` (stereo not given), the T/C by setting is: under setting [4], 101 % of control; under setting [2], 123 % of control; under setting [5], 116 % of control; under setting [6], 123 % of control; under setting [3], 115 % of control.

Take `Nc1nc(=S)c2[nH]c(N=Nc3ccc(S(=O)(=O)Nc4ncccn4)cc3)nc2[nH]1`: the T/C is, setting by setting: (endpoint: median survival time, dose: 0.78 mg/kg/injection, schedule: Q01DX009 (ip), vehicle: Klucel (hydroxypropylcellulose) (HPC), higher = longer survival) 99 % of control; (endpoint: median survival time, dose: 1.56 mg/kg/injection, schedule: Q01DX009 (ip), vehicle: Klucel (hydroxypropylcellulose) (HPC), higher = longer survival) 101 % of control; (endpoint: median survival time, dose: 3.12 mg/kg/injection, schedule: Q01DX009 (ip), vehicle: Klucel (hydroxypropylcellulose) (HPC), higher = longer survival) 95 % of control; under setting [1], 105 % of control.

Turning to `COc1ccc2c(c1)CC[C@@H]1[C@@H]2CC[C@@]2(C)[C@H]1CC[C@@]2(O)C(F)=C(F)F`, the T/C (endpoint: median survival time, dose: 12.5 mg/kg/injection, schedule: Q01DX009 (sc), vehicle: steriod suspending solution, higher = longer survival) is 93 % of control.

Turning to `O=P(NC12CC3CC(CC(C3)C1)C2)(N1CC1)N1CC1`, the T/C (endpoint: median survival time, dose: 0.25 mg/kg/injection, schedule: Q01DX009 (ip), vehicle: Klucel (hydroxypropylcellulose) (HPC), higher = longer survival) is 86 % of control; the T/C under setting [4] was 117 % of control; the T/C under setting [2] was 92 % of control; the T/C under setting [5] was 104 % of control; the T/C under setting [6] is 101 % of control.

For the molecule `ClCCCN1CCCCC1CCl` (stereo not given), the T/C is, setting by setting: (endpoint: median survival time, dose: 3.12 mg/kg/injection, schedule: Q04DX003 (ip), vehicle: saline, higher = longer survival) 96 % of control; (endpoint: median survival time, dose: 6.25 mg/kg/injection, schedule: Q04DX003 (ip), vehicle: saline, higher = longer survival) 113 % of control; (endpoint: median survival time, dose: 12.5 mg/kg/injection, schedule: Q04DX003 (ip), vehicle: saline, higher = longer survival) 104 % of control.

The record behind these values is PubChem BioAssay AID270 (DTP/NCI, 2004).
